Data as given in patent US11377473B2, “Albumin-binding prodrugs of auristatin E derivatives” (priority 2017, dated 2022).
Like-named read-outs stand apart in the source and are kept apart here.

Key:
[1] = pH-dependent release of free drug from human serum albumin conjugates; assay type: physicochemical; conditions: upon changing the pH from 7.4 to 4.1, 37° C., up to 24 hours
Procedure: The albumin-binding auristatin-Sulf07 derivatives were prepared as 2 mM stock solutions in anhydrous DMSO.
Release at pH 7.4: 442.4 μL of 1000 μM of reduced human serum albumin (881 μM free cysteine-34) and 727.6 μL PBS Buffer (4 mM sodium phosphate pH 7.4 and 150 mM NaCl) were added to a sealed HPLC vial and incubated at 37° C. for 30 minutes. After 30 minutes incubation 130 μL of the appropriate DMSO drug stock solution was added to the pre-incubated vial to produce a 200 μM solution of auristatin drug and a 300 μM solution of albumin (free cysteine-34). The mixture was allowed to react for 10 minutes at 37° C. and then analyzed by HPLC (method 7, 20 μL injection). Injections were repeated after 1 hour and then every hour up to 24 hours.
Release at pH 4.1: 408.5 μL of 1000 μM of reduced human serum albumin (881 μM free cysteine-34) and 539.4 μL of water were added to a sealed HPLC vial and incubated at 37° C. for 30 minutes. In a separate vial 190 μL sodium acetate buffer 50 mM pH 3.0 and 24.7 μL 1 M HCl were incubated at 37° C. for 30 minutes. […] The resulting solution was analyzed directly by HPLC (method 7). […]
The percentage of released free drug was determined by HPLC with a calibration curve (200 μM, 100 μM, 50 μM, 25 μM and 12.5 μM) for the free drugs i.e. AE-Keto for AE-Keto-Sulf07 and AE-Ester for AE-Ester-Sulf07. […]

[2] = tested on: panel of 6 selected human cancer cell lines (LXFL 1674L, SW-620, CAL-27, RKO, MDA-MB-468, SK-OV-3); assay: IC50 determination in a panel of tumor cell lines (CellTiter-Blue Cell Viability assay); assay type: cell-based
Procedure: Samples were provided to Charles River Discovery Research Services Germany GmbH as frozen stock solutions in pharmaceutical grade DMSO (Sigma-Aldrich, Taufkirchen, Germany). On each day of the experiment, a frozen aliquot of stock solution was thawed. Subsequent serial dilutions were realized with complete RPMI 1640 cell culture medium using an intermediate dilution plate. 10 μL taken from the intermediate dilution plate were then transferred to 140 μL/well of the cell culture plate. Cells were treated with the test compounds at 10 concentrations in triplicate in half-log steps from 0.003 nM to 100 nM for a period of 96 h.
The compounds were tested in a panel of 6 selected human cancer cell lines by using CellTiter-Blue® Cell Viability assay (Promega, Mannheim, Germany). IC values are reported as absolute IC50 values, obtained for a test compound as the geometric mean of IC50 values over all cell lines tested.
The cell lines used were LXFL 1674L (established from patient-derived xenograft at Charles River Discovery Research Services Germany GmbH), SW-620 (kindly provided by the NCI, Bethesda, Md., USA), CAL-27 (purchased from DSMZ, Deutsche Sammlung von Mikroorganismen und Zellkulturen, Braunschweig, Germany), RKO, MDA-MB-468, and SK-OV-3 (from ATCC, American Type Culture Collection, Rockville, Md., USA). Authenticity of all cell lines was proven at the DSMZ by STR (short tandem repeat) analysis, a PCR based DNA-fingerprinting methodology. Cell lines were routinely passaged once or twice weekly and maintained in culture for up to 20 passages. Cells were grown at 37° C. in a humidified atmosphere with 5% CO2 in RPMI 1640 medium (25 mM HEPES, with L-glutamine, Biochrom, Berlin, Germany) supplemented with 10% (v/v) fetal calf serum (Sigma-Aldrich, Taufkirchen, Germany) and 0.1 mg/mL gentamicin (Life Technologies, Karlsruhe, Germany). The CellTiter-Blue® Cell Viability Assay was used according to manufacturer's instructions. Briefly, cells were harvested from exponential phase cultures, counted and plated in 96-well flat-bottom microtiter plates at a cell density of 4,000-10,000 cells/well depending on the cell line's growth rate. After a 24 h recovery period to allow the cells to resume exponential growth, 10 μL of culture medium (six control wells/plate) or of culture medium with test compound were added. The compounds were applied at 10 concentrations in triplicate in half-log increments up to 100 nM and cells were treated continuously for 96 h. […] Following an incubation period of up to 4 h, fluorescence (FU) was measured by using the Enspire Multimode Plate Reader (excitation λ=531 nm, emission λ=615 nm). IC50 values were determined with GraphPad Prism bioanalytic software (San Diego, Calif., USA).

[3] = Reconstitution stability (maleimide hydrolysis, loss of API) in reconstitution buffer; assay type: physicochemical; conditions: after 4 hours incubation at room temperature in reconstitution buffer (50 mM sodium phosphate pH 7.65 containing 4% HPβCD and 5% sucrose)
Procedure: (§1) The albumin-binding AE-Keto drug derivatives were reconstituted in 50 mM sodium phosphate buffer pH 7.6 which contained 5% sucrose (w/v) and 2% 2-hydroxypropyl-β-cyclodextrin (2-HPβCD). Both drugs were reconstituted at a concentration of 1277 μM (equal to 4.5 mg/kg murine xenograft dose), the dissolution of both drugs was confirmed by HPLC (method 2, 254 nm). Stability of the reconstituted drugs was monitored by HPLC at room temperature every 15 minutes over a period of 240 minutes for maleimide hydrolysis and loss of API.
as §1, with “AE-Ester” for “AE-Keto drug”, “4% 2-HPβCD.” for “2% 2-hydroxypropyl-β-cyclodextrin (2-HPβCD).”, “655” for “1277”, “2.4” for “4.5”, “310” for “254”

[4] = Homo sapiens, 96 h, read-out: Geometric mean IC50, geometric mean over six cell lines, 96 h treatment

SMILES | percent of free drug released from albumin conjugate [1] | IC50 [2, 4] [nM] | IC50 ([2]; read-out: Geometric mean IC50, geometric mean over six cell lines, 96 h treatment) [nM] | maleimide hydrolyzed [3] [%]
CC[C@H](C)[C@@H]([C@@H](CC(=O)N1CCC[C@H]1[C@H](OC)[C@@H](C)C(=O)N[C@H](C)[C@@H](OC(=O)c1ccc(C(C)=O)cc1)c1ccccc1)OC)N(C)C(=O)[C@@H](NC(=O)[C@H](C(C)C)N(C)C)C(C)C (stereo in doubt) [AE-Ester, (1S,2R)-2-((3R)-3-((S)-1-((3R,4S,5R)-4-((S)-2-((S)-2-(dimethylamino)-3-methylbutanamido)-N,3-dimethylbutanamido)-3-methoxy-5-methylheptanoyl)pyrrolidin-2-yl)-3-methoxy-2-methylpropanamido)-1-phenylpropyl 4-acetylbenzoate] | higher than the percent of AE-Keto released | 0.339 | 0.399 ± 0.00019 | 
CC[C@H](C)[C@@H]([C@@H](CC(=O)N1CCC[C@H]1[C@H](OC)[C@@H](C)C(=O)N[C@H](C)C(=NNC(=O)CCCCCN1C(=O)C=CC1=O)c1ccccc1)OC)N(C)C(=O)[C@@H](NC(=O)[C@H](C(C)C)N(C)C)C(C)C [AE-Keto-EMCH, reference compound] |  |  |  | 5.4
CC[C@H](C)[C@@H]([C@@H](CC(=O)N1CCC[C@H]1[C@H](OC)[C@@H](C)C(=O)N[C@H](C)C(=O)c1ccccc1)OC)N(C)C(=O)[C@@H](NC(=O)[C@H](C(C)C)N(C)C)C(C)C [AE-Keto, (S)-1-(((S)-1-(((3R,4S,5S)-3-methoxy-1-((S)-2-((1R,2R)-1-methoxy-2-methyl-3-oxo-3-(((R)-1-oxo-1-phenylpropan-2-yl)amino)propyl)pyrrolidin-1-yl)-5-methyl-1-oxoheptan-4-yl)(methyl)amino)-3-methyl-1-oxobutan-2-yl)amino)-N,N,3-trimethyl-1-oxobutan-2-aminium 2,2,2-trifluoroacetate] |  | 0.259 |  | 
CC[C@H](C)[C@@H]([C@@H](CC(=O)N1CCC[C@H]1[C@H](OC)[C@@H](C)C(=O)N[C@H](C)[C@@H](OC(=O)c1ccc(C(C)=NNC(=O)CCCCCN2C(=O)C=CC2=O)cc1)c1ccccc1)OC)N(C)C(=O)[C@@H](NC(=O)[C@H](C(C)C)N(C)C)C(C)C [AE-Ester-EMCH, reference compound] |  |  |  | 11.0
